In patent US11058680B2, “Combinations of opioid/TLR4 antagonists and acetaminophen for use in the treatment of emotional pain and insomnia” (Allodynic Threapeutics, LLC, priority 2016, dated 2021):

Tests used:
[1] = Migraine open-label pilot study: side effects (AEs present) at each time point; format: in vivo, human
Experimental: The majority of the patients remained in the clinic for observation for 2 hours after dosing. […] Headache pain was assessed on a 4-point scale (0=none; 1=mild; 2=moderate; 3=severe). The assessment of photophobia, phonophobia, nausea, and neck/shoulder pain was assessed as present or absent. The assessment of emotional pain was recorded on a 4-point scale (0=none, 1=mild, 2=moderate, 3=severe). The assessment of difficulty sleeping or falling asleep (insomnia) was assessed on a 4-point scale (0=none, 1=mild, 2=moderate, 3=severe) at baseline, for the night before treatment and for the following nights at 24, and 48 hours. Patients recorded side effects severity at each time point. Patients recorded the time of the first rescue medication dose and all additional headache medications used within 48 hours. Patients were required to stay awake to record their assessments in the first 2 hours, sleeping was permitted thereafter. While asleep, assessments were completed according to patients' best estimation. For data analysis, it was assumed that a migraine attack is a unique patient. Patients were asked to specify (yes or no answer) to whether they experienced emotional pain symptoms such as: hurt feelings, sadness, fear, or anger. Patients who replied positively to having emotional pain were asked to specify the cause into one of the following options: relationship, work/school, money/debt, health, or loss/grief.

[2] = test system: patient with post herpetic neuralgia, chronic lower back pain and anger with spouse; assay: Example 8 case study; format: in vivo, human; settings: naltrexone 5 mg/clonidine 0.025 mg twice daily; naltrexone 5 mg twice daily; naltrexone 2.25 mg and acetaminophen 325 mg four times daily
[3] = test system: patient with chronic migraines, lower back pain and anger with spouse; assay: Example 9 case study; format: in vivo, human; settings: naltrexone 5 mg twice daily for 14 months
Text: For 30 years they and their retired spouse were always together.

[4] = test system: patient with lower back and leg pain and emotional pain due to separation from a child; assay: Example 12 case study, patient diary
[5] = Ibuprofen 800 mg T.I.D. PRN 2006-2010, Naltrexone 2.25 mg Q.I.D./Clonidine 0.025 mg Q.I.D. 2010-2015, APAP 325 mg Q.I.D. Jun. 29-Jul. 6, 2015, Naltrexone 2.5 mg Q.I.D. to Jul. 8, 2015, Naltrexone 2.25 mg/APAP 325 mg Q.I.D. Jul. 9-Oct. 4, 2015

O=C1CC[C@@]2(O)[C@H]3Cc4ccc(O)c5c4[C@@]2(CCN3CC2CC2)[C@H]1O5 [naltrexone]
4: API, average pain intensity (0-10 NRS) [4, 5]
3 (19): AEs present ([1]; 1 h, all doses combined)
90%: lower back pain diminished by [3] | migraine intensity and frequency lessened by [3]
4 (25): AEs present ([1]; 30 min, all doses combined)
2 (66): AEs present ([1]; 30 min, NTX/APAP 3.25 mg/325 mg, NTX 3.25 mg)
1 (100): AEs present ([1]; 30 min, NTX/APAP 5 mg/325 mg, NTX 5 mg) | AEs present ([1]; 90 min, NTX/APAP 5 mg/325 mg, NTX 5 mg)
0: AEs present ([1]; 7 min, NTX/APAP 3.25 mg/325 mg, NTX 3.25 mg) | AEs present ([1]; 15 min, NTX/APAP 3.25 mg/325 mg, NTX 3.25 mg) | AEs present ([1]; 15 min, NTX/APAP 5 mg/325 mg, NTX 5 mg) | AEs present ([1]; 15 min, NTX/APAP […]325 mg, NTX 1.5 mg) | AEs present ([1]; 1 h, NTX/APAP […]325 mg, NTX 1.5 mg) | AEs present ([1]; 3 h, NTX/APAP […]325 mg, NTX 1.5 mg) | AEs present ([1]; 4 h, NTX/APAP […]325 mg, NTX 1.5 mg) | AEs present ([1]; 6 h, NTX/APAP […]325 mg, NTX 1.5 mg) | AEs present ([1]; 12 h, NTX/APAP […]325 mg, NTX 1.5 mg) | AEs present ([1]; 24 h, NTX/APAP 2.25 mg/325 mg, NTX 2.25 mg) | AEs present ([1]; 24 h, NTX/APAP […]325 mg, NTX 1.5 mg) | AEs present ([1]; 48 h, NTX/APAP 5 mg/325 mg, NTX 5 mg) | AEs present ([1]; 48 h, NTX/APAP […]325 mg, NTX 1.5 mg)
1 (33): AEs present ([1]; 90 min, NTX/APAP 3.25 mg/325 mg, NTX 3.25 mg) | AEs present ([1]; 2 h, NTX/APAP 3.25 mg/325 mg, NTX 3.25 mg) | AEs present ([1]; 3 h, NTX/APAP 3.25 mg/325 mg, NTX 3.25 mg) | AEs present ([1]; 4 h, NTX/APAP 3.25 mg/325 mg, NTX 3.25 mg) | AEs present ([1]; 6 h, NTX/APAP 3.25 mg/325 mg, NTX 3.25 mg) | AEs present ([1]; 12 h, NTX/APAP 3.25 mg/325 mg, NTX 3.25 mg) | AEs present ([1]; 24 h, NTX/APAP 3.25 mg/325 mg, NTX 3.25 mg) | AEs present ([1]; 48 h, NTX/APAP 3.25 mg/325 mg, NTX 3.25 mg)
5: WPI, Worst Pain Intensity (0-10 NRS) [4, 5]
1.5 /10: mean average pain intensity [2]
6.5: Insomnia (0-10 NRS) [4, 5]
0 (0): AEs present ([1]; 7 min, NTX/APAP 2.25 mg/325 mg, NTX 2.25 mg) | AEs present ([1]; 30 min, NTX/APAP […]325 mg, NTX 1.5 mg) | AEs present ([1]; 90 min, NTX/APAP 2.25 mg/325 mg, NTX 2.25 mg) | AEs present ([1]; 90 min, NTX/APAP […]325 mg, NTX 1.5 mg) | AEs present ([1]; 2 h, NTX/APAP 2.25 mg/325 mg, NTX 2.25 mg) | AEs present ([1]; 2 h, NTX/APAP […]325 mg, NTX 1.5 mg) | AEs present ([1]; 3 h, NTX/APAP 2.25 mg/325 mg, NTX 2.25 mg) | AEs present ([1]; 4 h, NTX/APAP 2.25 mg/325 mg, NTX 2.25 mg) | AEs present ([1]; 6 h, NTX/APAP 2.25 mg/325 mg, NTX 2.25 mg) | AEs present ([1]; 12 h, NTX/APAP 2.25 mg/325 mg, NTX 2.25 mg) | AEs present ([1]; 48 h, NTX/APAP 2.25 mg/325 mg, NTX 2.25 mg)
same level of emotional pain: emotional pain due to separation from child (patient report) ([4]; naltrexone/clonidine, acetaminophen 325 mg four times daily 5 days, naltrexone alone 12 days, naltrexone 2.25 mg and acetaminophen 325 mg four times daily almost three months)
2 (13): AEs present ([1]; 15 min, all doses combined) | AEs present ([1]; 90 min, all doses combined) | AEs present ([1]; 2 h, combined doses) | AEs present ([1]; 3 h, combined doses) | AEs present ([1]; 4 h, combined doses) | AEs present ([1]; 6 h, combined doses) | AEs present ([1]; 12 h, combined doses) | AEs present ([1]; 24 h, combined doses)
1: AEs present ([1]; 7 min, NTX/APAP 5 mg/325 mg, NTX 5 mg) | AEs present ([1]; 1 h, NTX/APAP 3.25 mg/325 mg, NTX 3.25 mg) | AEs present ([1]; 1 h, NTX/APAP 5 mg/325 mg, NTX 5 mg) | AEs present ([1]; 2 h, NTX/APAP 5 mg/325 mg, NTX 5 mg) | AEs present ([1]; 3 h, NTX/APAP 5 mg/325 mg, NTX 5 mg) | AEs present ([1]; 4 h, NTX/APAP 5 mg/325 mg, NTX 5 mg) | AEs present ([1]; 6 h, NTX/APAP 5 mg/325 mg, NTX 5 mg) | AEs present ([1]; 12 h, NTX/APAP 5 mg/325 mg, NTX 5 mg) | AEs present ([1]; 24 h, NTX/APAP 5 mg/325 mg, NTX 5 mg) | AEs present ([1]; 48 h, combined doses)
5.5: PRSI, Pain Related Sleep Interference (0-10 NRS) [4, 5] | WEP, Worst Emotional Pain (0-10 NRS) [4, 5]
6: PGIC (1-7 Likert) ([4]; Naltrexone 2.25 mg Q.I.D./Clonidine 0.025 mg Q.I.D. 2010-2015, APAP 325 mg Q.I.D. Jun. 29-Jul. 6, 2015, Naltrexone 2.5 mg Q.I.D. to Jul. 8, 2015, Naltrexone 2.25 mg/APAP 325 mg Q.I.D. Jul. 9-Oct. 4, 2015)
1 (11): AEs present ([1]; 15 min, NTX/APAP 2.25 mg/325 mg, NTX 2.25 mg) | AEs present ([1]; 30 min, NTX/APAP 2.25 mg/325 mg, NTX 2.25 mg) | AEs present ([1]; 1 h, NTX/APAP 2.25 mg/325 mg, NTX 2.25 mg)
1 (16): AEs present ([1]; 7 min, all doses combined)
